# Results as given in PubChem BioAssay AID1963975 (Molecular Pharmacology Branch, DTP, NCI, 2024).
# Test system: 624824-186-R-J2-PDC multicell spheroids, viability
# Assay: Anticancer human tumor 624824-186-R-J2-PDC patient-derived colon adenocarcinoma cell line growth inhibition [PI3K]
# Conditions: for viability, T/C: stronger effect = lower value
# In short: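 Stroma-containing spheroids: tumor line, pooled-donor HUVEC, hMSC. Treatments: targeted agents with PI3K inhibitors. Dosing: clinically relevant, half-log spacing, 10 microM ceiling without known Cmax. Read-out: cell viability.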
# [1] = curve of first compound, second compound 0.0316 µM
# [2] = curve of first compound, second compound 0.1 µM
# [3] = curve of first compound, second compound 0.316 µM
# [4] = curve of first compound, second compound 1 µM
# [5] = second compound 0.0316 µM, first compound 0.0316 µM
# [6] = second compound 0.0316 µM, first compound 0.1 µM
# [7] = second compound 0.1 µM, first compound 0.0316 µM
# [8] = second compound 0.1 µM, first compound 0.1 µM
# [9] = second compound 0.316 µM, first compound 0.0316 µM
# [10] = second compound 0.316 µM, first compound 0.1 µM
# [11] = second compound 1 µM, first compound 0.0316 µM
# [12] = second compound 1 µM, first compound 0.1 µM
# 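Note: spheroids exposed to agents for 7 days before viability read.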
# 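Throughout, for viability, T/C: 100% = DMSO vehicle treated spheroids.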
structure (smiles),measurement,setting,value
CCCS(=O)(=O)Nc1ccc(F)c(C(=O)c2c[nH]c3ncc(-c4ccc(Cl)cc4)cc23)c1F + COc1c(OCCCN2CCOCC2)ccc2c3n(c(=NC(=O)c4cnc(N)nc4)nc12)CCN3,IC50,"curve of first compound, second compound 0.00316 µM",9490 nM
same,IC50,"curve of first compound, second compound 0.01 µM",7330 nM
same,IC50,[1],2200 nM
same,IC50,[2],1760 nM
same,IC50,[3],178 nM
same,IC50,[4],111 nM
same,"viability, T/C","second compound 0.00316 µM, first compound 0.0316 µM",84.7%
same,"viability, T/C","second compound 0.00316 µM, first compound 0.1 µM",95.8%
same,"viability, T/C","second compound 0.00316 µM, first compound 0.316 µM",79.4%
same,"viability, T/C","second compound 0.00316 µM, first compound 1 µM",111%
same,"viability, T/C","second compound 0.00316 µM, first compound 3.16 µM",123%
same,"viability, T/C","second compound 0.00316 µM, first compound 10 µM",47.7%
same,"viability, T/C","second compound 0.01 µM, first compound 0.0316 µM",81.5%
same,"viability, T/C","second compound 0.01 µM, first compound 0.1 µM",95.2%
same,"viability, T/C","second compound 0.01 µM, first compound 0.316 µM",82.3%
same,"viability, T/C","second compound 0.01 µM, first compound 1 µM",87.4%
same,"viability, T/C","second compound 0.01 µM, first compound 3.16 µM",82.1%
same,"viability, T/C","second compound 0.01 µM, first compound 10 µM",38%
same,"viability, T/C",[5],84.2%
same,"viability, T/C",[6],64.8%
same,"viability, T/C","second compound 0.0316 µM, first compound 0.316 µM",61.6%
same,"viability, T/C","second compound 0.0316 µM, first compound 1 µM",55.6%
same,"viability, T/C","second compound 0.0316 µM, first compound 3.16 µM",60.6%
same,"viability, T/C","second compound 0.0316 µM, first compound 10 µM",30.2%
same,"viability, T/C",[7],65.3%
same,"viability, T/C",[8],54.4%
same,"viability, T/C","second compound 0.1 µM, first compound 0.316 µM",50%
same,"viability, T/C","second compound 0.1 µM, first compound 1 µM",48.1%
same,"viability, T/C","second compound 0.1 µM, first compound 3.16 µM",49.8%
same,"viability, T/C","second compound 0.1 µM, first compound 10 µM",21.4%
same,"viability, T/C",[9],64.3%
same,"viability, T/C",[10],51%
same,"viability, T/C","second compound 0.316 µM, first compound 0.316 µM",42.8%
same,"viability, T/C","second compound 0.316 µM, first compound 1 µM",37.9%
same,"viability, T/C","second compound 0.316 µM, first compound 3.16 µM",39.5%
same,"viability, T/C","second compound 0.316 µM, first compound 10 µM",18.6%
same,"viability, T/C",[11],56.5%
same,"viability, T/C",[12],50.1%
same,"viability, T/C","second compound 1 µM, first compound 0.316 µM",44.2%
same,"viability, T/C","second compound 1 µM, first compound 1 µM",35.4%
same,"viability, T/C","second compound 1 µM, first compound 3.16 µM",35.1%
same,"viability, T/C","second compound 1 µM, first compound 10 µM",20.6%
C[C@@H](NC(=O)c1ncnc(N)c1Cl)c1ncc(C(=O)Nc2cc(C(F)(F)F)c(Cl)cn2)s1,"viability, T/C",compound 1 µM,81.6% [middle of 4 runs]
same,"viability, T/C",compound 3.16 µM,68% [middle of 4 runs]
same,IC50,curve of compound,> 10000 nM
CC(=O)c1c(C)c2cnc(Nc3ccc(N4CCNCC4)cn3)nc2n(C2CCCC2)c1=O + CC(Nc1ncnc2nc[nH]c12)c1cc2cccc(Cl)c2c(=O)n1-c1ccccc1,IC50,[1],> 100 nM
same,IC50,[2],> 100 nM
same,IC50,[3],> 100 nM
same,IC50,[4],> 100 nM
same,IC50,"curve of first compound, second compound 3.16 µM",> 100 nM
same,IC50,"curve of first compound, second compound 10 µM",> 100 nM
same,"viability, T/C","second compound 0.0316 µM, first compound 0.000316 µM",78.8%
same,"viability, T/C","second compound 0.0316 µM, first compound 0.001 µM",118%
same,"viability, T/C","second compound 0.0316 µM, first compound 0.00316 µM",98.7%
same,"viability, T/C","second compound 0.0316 µM, first compound 0.01 µM",98.5%
same,"viability, T/C",[5],80.5%
same,"viability, T/C",[6],86.1%
same,"viability, T/C","second compound 0.1 µM, first compound 0.000316 µM",107%
same,"viability, T/C","second compound 0.1 µM, first compound 0.001 µM",85.2%
same,"viability, T/C","second compound 0.1 µM, first compound 0.00316 µM",84.4%
same,"viability, T/C","second compound 0.1 µM, first compound 0.01 µM",79.9%
same,"viability, T/C",[7],90%
same,"viability, T/C",[8],93.5%
same,"viability, T/C","second compound 0.316 µM, first compound 0.000316 µM",121%
same,"viability, T/C","second compound 0.316 µM, first compound 0.001 µM",134%
same,"viability, T/C","second compound 0.316 µM, first compound 0.00316 µM",79.8%
same,"viability, T/C","second compound 0.316 µM, first compound 0.01 µM",77.5%
same,"viability, T/C",[9],78.2%
same,"viability, T/C",[10],93%
same,"viability, T/C","second compound 1 µM, first compound 0.000316 µM",111%
same,"viability, T/C","second compound 1 µM, first compound 0.001 µM",96.6%
same,"viability, T/C","second compound 1 µM, first compound 0.00316 µM",89.5%
same,"viability, T/C","second compound 1 µM, first compound 0.01 µM",108%
same,"viability, T/C",[11],88.6%
same,"viability, T/C",[12],92.6%
same,"viability, T/C","second compound 3.16 µM, first compound 0.000316 µM",98.8%
same,"viability, T/C","second compound 3.16 µM, first compound 0.001 µM",83.6%
same,"viability, T/C","second compound 3.16 µM, first compound 0.00316 µM",91.9%
same,"viability, T/C","second compound 3.16 µM, first compound 0.01 µM",111%
same,"viability, T/C","second compound 3.16 µM, first compound 0.0316 µM",88.5%
same,"viability, T/C","second compound 3.16 µM, first compound 0.1 µM",84%
same,"viability, T/C","second compound 10 µM, first compound 0.000316 µM",112%
same,"viability, T/C","second compound 10 µM, first compound 0.001 µM",110%
same,"viability, T/C","second compound 10 µM, first compound 0.00316 µM",107%
same,"viability, T/C","second compound 10 µM, first compound 0.01 µM",96.3%
same,"viability, T/C","second compound 10 µM, first compound 0.0316 µM",92.4%
same,"viability, T/C","second compound 10 µM, first compound 0.1 µM",94%
